# Source: ChEMBL document CHEMBL5244279, “Perspectives on SARS-CoV-2 Main Protease Inhibitors” (J Med Chem, 2021)
# Experiments:
# [1] = molecular target: T1, Replicase polyprotein 1ab (Severe acute respiratory syndrome coronavirus 2, UniProt P0DTD1); assay: Inhibition of SARS CoV-2 Main protease using MCA-AVLQSGFR-Lys(DNP)-Lys-NH2 peptide as substrate by fluorescence based analysis
# [2] = molecular target: T1, Replicase polyprotein 1ab; assay: Inhibition of SARS CoV-2 Main protease incubated for 10 min by FRET assay
# [3] = tested on: SARS-CoV-2; assay type: functional, organism-based, Vero E6; details: Severe acute respiratory syndrome coronavirus 2, strain 107, Vero C1008
# [4] = Inhibition of SARS CoV N-terminal his-tagged Main protease using Dabcyl-KTSAVLQSGFRKME-Edan peptide as substrate by fluorescence based analysis; set-up: species or system Severe acute respiratory syndrome-related coronavirus
# [5] = Cytotoxicity against cat CRFK cells assessed as reduction of cell viability; assay type: toxicity, cell-based, Felis catus
# [6] = Cytotoxicity against mouse L929 cells assessed as reduction of cell viability; assay type: toxicity, cell-based
# [7] = Cytotoxicity against human Huh-7 cells assessed as reduction of cell viability; assay type: toxicity, cell-based
# [8] = tested on: SARS-CoV-2; assay type: functional, organism-based, Vero E6; details: Severe acute respiratory syndrome coronavirus 2, Vero C1008
# [9] = Binding affinity to SARS CoV N-terminal his-tagged Main protease using Dabcyl-KTSAVLQSGFRKME-Edan peptide as substrate by fluorescence based analysis; set-up: species or system Severe acute respiratory syndrome-related coronavirus
SMILES,IC50 [2] [nM],EC50 [3] [nM],other results
CCCCNC(=O)c1ccc(-n2sc3ccccc3c2=O)cc1,,,IC50 [1]: 910 nM
COc1ccc(OC(C)C(=O)N2C[C@@H]3CCC[C@@H]3[C@H]2C(=O)N[C@H](C=O)C[C@@H]2CCNC2=O)cc1 (some centres not stated),69.1,,
CN(C)c1ccc(CCC(=O)N2C[C@@H]3CCC[C@@H]3[C@H]2C(=O)N[C@H](C=O)C[C@@H]2CCNC2=O)cc1,378,,
O=C[C@H](C[C@@H]1CCNC1=O)NC(=O)[C@@H]1[C@H]2CCC[C@H]2CN1C(=O)COc1ccc(Cl)cc1,,670,
CC1(C)[C@@H]2[C@@H](C(=O)N[C@H](C=O)C[C@@H]3CCNC3=O)N(C(=O)CCc3cccc(F)c3)C[C@@H]21,16.5,2230,
O=C[C@H](C[C@@H]1CCNC1=O)NC(=O)[C@@H]1[C@H]2CCC[C@H]2CN1C(=O)CCc1cccc(F)c1,,2970,
CC1(C)[C@@H]2[C@@H](C(=O)N[C@H](C=O)C[C@@H]3CCNC3=O)N(C(=O)COc3ccc(Cl)cc3)C[C@@H]21,19,530,
CC(C)[C@H](NC(=O)[C@H](C)NC(=O)OCc1ccccc1)C(=O)N[C@@H](Cc1c[nH]c2ccccc12)[C@@H](O)[C@H](O)[C@@H](Cc1c[nH]c2ccccc12)NC(=O)[C@@H](NC(=O)[C@H](C)NC(=O)OCc1ccccc1)C(C)C,,,Ki [4]: 73 nM
CCCC1CCC(OC(=O)N[C@@H](CC(C)C)C(=O)N[C@H](C=O)C[C@@H]2CCNC2=O)CC1 (some centres not stated),,,CC50 [5]: > 100000 nM; CC50 [6]: > 100000 nM; CC50 [7]: > 100000 nM
O=c1c2ccccc2sn1CCCCc1ccccc1,,,IC50 [1]: 410 nM
O=C[C@H](C[C@@H]1CCNC1=O)NC(=O)[C@@H]1[C@H]2CCC[C@H]2CN1C(=O)CCc1ccc(F)c(F)c1,17.4,30500,
O=C[C@H](C[C@@H]1CCNC1=O)NC(=O)[C@@H]1[C@H]2CCC[C@H]2CN1C(=O)c1cc2ccccc2[nH]1,153,,
COc1ccc(OCC(=O)N2C[C@@H]3CCC[C@@H]3[C@H]2C(=O)N[C@H](C=O)C[C@@H]2CCNC2=O)cc1,36.2,24700,
CCCn1sc2ccccc2c1=O,,,IC50 [1]: 730 nM
O=C[C@H](C[C@@H]1CCNC1=O)NC(=O)[C@H](Cc1ccccc1)NC(=O)/C=C/c1cccc(Br)c1,,,IC50 [8]: 700 nM
COc1ccc(/C=C/C(=O)N2C[C@@H]3CCC[C@@H]3[C@H]2C(=O)N[C@H](C=O)C[C@@H]2CCNC2=O)c(OC)c1,196,,
O=C[C@H](C[C@@H]1CCNC1=O)NC(=O)[C@@H]1[C@H]2CCC[C@H]2CN1C(=O)COc1ccc2c(c1)OCCO2,93.5,,
CC1(C)[C@@H]2[C@@H](C(=O)N[C@H](C=O)C[C@@H]3CCNC3=O)N(C(=O)COc3ccc(Br)cc3Cl)C[C@@H]21,13.3,1180,
O=c1c2ccccc2[se]n1-c1cccc([N+](=O)[O-])c1,,,IC50 [1]: 150 nM

SMILES,IC50 [2] [nM],EC50 [3] [nM],other results
CN(C)c1ccc(C(=O)On2nnc3ccccc32)cc1,,,Ki [9]: 17.4 nM
CC1(C)[C@@H]2[C@@H](C(=O)N[C@H](C=O)C[C@@H]3CCNC3=O)N(C(=O)c3ccc4ccccc4c3)C[C@@H]21,453,,
CN(C)c1ccc(/C=C/C(=O)N2C[C@@H]3CCC[C@@H]3[C@H]2C(=O)N[C@H](C=O)C[C@@H]2CCNC2=O)cc1,375,,
CCCCC1CCC(OC(=O)N[C@@H](CC(C)C)C(=O)N[C@H](C=O)C[C@@H]2CCNC2=O)CC1 (some centres not stated),,,CC50 [5]: 63300 nM; CC50 [6]: 63300 nM; CC50 [7]: 63300 nM; IC50 [8]: 900 nM
CC1(C)[C@@H]2[C@@H](C(=O)N[C@H](C=O)C[C@@H]3CCNC3=O)N(C(=O)COc3cccc(C(F)(F)F)c3)C[C@@H]21,43.3,17000,
COc1ccc(OCC(=O)N2C[C@H]3[C@@H]([C@H]2C(=O)N[C@H](C=O)C[C@@H]2CCNC2=O)C3(C)C)cc1F,37.2,4680,
O=C[C@H](C[C@@H]1CCNC1=O)NC(=O)[C@@H]1[C@H]2CCC[C@H]2CN1C(=O)/C=C/c1ccccc1,526,,
CC1(C)[C@@H]2[C@@H](C(=O)N[C@H](C=O)C[C@@H]3CCNC3=O)N(C(=O)COc3ccc(Cl)c(Cl)c3)C[C@@H]21,12.4,2080,
CC1(C)[C@@H]2[C@@H](C(=O)N[C@H](C=O)C[C@@H]3CCNC3=O)N(C(=O)COc3ccc4ccccc4c3)C[C@@H]21,52.1,,
CC1(C)[C@@H]2[C@@H](C(=O)N[C@H](C=O)C[C@@H]3CCNC3=O)N(C(=O)COc3ccc(Br)c(Cl)c3)C[C@@H]21,50.8,,
Cc1cc(Cl)ccc1OCC(=O)N1C[C@@H]2CCC[C@@H]2[C@H]1C(=O)N[C@H](C=O)C[C@@H]1CCNC1=O,19.7,1500,
O=C(On1nnc2ccccc21)c1cc2cc(F)ccc2[nH]1,,,Ki [9]: 13.8 nM
CCCC1CCC(OC(=O)N[C@@H](CC(C)C)C(=O)N[C@@H](C[C@@H]2CCNC2=O)C(O)S(=O)(=O)O)CC1 (some centres not stated),,,CC50 [5]: > 100000 nM; CC50 [6]: > 100000 nM; CC50 [7]: > 100000 nM
CC1(C)[C@@H]2[C@@H](C(=O)N[C@H](C=O)C[C@@H]3CCNC3=O)N(C(=O)COc3ccc(Cl)cc3Cl)C[C@@H]21,13,660,
O=C[C@H](C[C@@H]1CCNC1=O)NC(=O)[C@@H]1[C@H]2CCC[C@H]2CN1C(=O)c1cc2ccccn2n1,299,,
O=C[C@H](C[C@@H]1CCNC1=O)NC(=O)[C@@H]1[C@H]2CCC[C@H]2CN1C(=O)COc1ccc(Cl)cc1F,34.7,1650,
Cc1cc(-c2ccc(N/N=C3\C=Cc4c(S(=O)(=O)O)cc(S(=O)(=O)O)c(N)c4C3=O)c(C)c2)ccc1N/N=C1\C=Cc2c(S(=O)(=O)O)cc(S(=O)(=O)O)c(N)c2C1=O,,,IC50 [4]: 200 nM; Ki [4]: 73 nM
O=c1c2ccccc2sn1-c1ccc(Cl)cc1,,,IC50 [1]: 390 nM
O=c1c2ccccc2sn1Cc1ccccc1,,,IC50 [1]: 170 nM
